In patent US9260467B2, “Sialic acid dimers” (priority 2011, dated 2016):

Biological target: T1, Siglec-2 (CD22) (Homo sapiens, UniProt P20273)
T1 sequence (P20273 20-847): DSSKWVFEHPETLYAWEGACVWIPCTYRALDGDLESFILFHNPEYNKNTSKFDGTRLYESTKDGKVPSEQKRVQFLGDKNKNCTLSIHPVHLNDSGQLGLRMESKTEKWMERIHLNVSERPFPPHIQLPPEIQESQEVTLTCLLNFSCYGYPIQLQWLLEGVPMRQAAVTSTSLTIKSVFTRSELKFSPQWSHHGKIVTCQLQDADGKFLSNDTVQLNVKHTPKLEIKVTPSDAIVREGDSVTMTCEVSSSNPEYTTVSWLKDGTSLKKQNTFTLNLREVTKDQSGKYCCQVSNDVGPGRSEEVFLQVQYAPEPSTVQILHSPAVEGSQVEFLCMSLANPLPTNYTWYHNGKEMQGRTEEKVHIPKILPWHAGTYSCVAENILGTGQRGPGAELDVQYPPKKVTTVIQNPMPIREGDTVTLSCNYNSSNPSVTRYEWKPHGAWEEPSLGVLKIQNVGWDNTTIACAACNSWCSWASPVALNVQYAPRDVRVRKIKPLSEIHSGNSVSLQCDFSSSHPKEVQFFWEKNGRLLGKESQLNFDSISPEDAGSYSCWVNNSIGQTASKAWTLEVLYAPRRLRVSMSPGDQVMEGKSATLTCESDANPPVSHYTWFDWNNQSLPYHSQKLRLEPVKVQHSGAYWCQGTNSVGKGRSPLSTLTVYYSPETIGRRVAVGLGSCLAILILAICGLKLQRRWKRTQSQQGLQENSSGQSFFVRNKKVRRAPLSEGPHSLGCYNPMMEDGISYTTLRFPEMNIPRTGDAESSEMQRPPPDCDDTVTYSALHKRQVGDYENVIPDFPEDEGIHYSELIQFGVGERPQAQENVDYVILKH
Test: new affinity assay: displacement of biotinylated compound 155 from sialidase-treated Daudi cells, FACS with streptavidin-PE
Assay type: binding
Parameters: endogenous in cells; host or cells: Daudi (human B-cell lymphoma line)
Settings: Table II; rIP values set relative to compound 38; Daudi cells, displacement of compound 155
Description: To determine the affinity of the compound of the formula (I), approximately 5×10^6 to 2×10^8 cells of the human B-cell lymphoma line “Daudi” were incubated with sialidase (A. ureafaciens) at 37° C. for 1 h (final concentration 0.1 unit/ml). […] Batches of 1-2×10^6 cells were transferred to sample vessels, and incubated on ice for 15 min with serial concentrations (10-fold dilutions, 1 mM to 1×10^−7 mM) of the substance under measurement (inhibitor). The reaction volume was 50 μl. Then 50 microliters of compound 155 (4-micromolar) were added, and incubation took place for 20 min Washing with FACS buffer (PBS, 0.1 BSA, 0.01% sodium azide) was followed by incubation with streptavidin-PE in the dark for 15 min, followed by washing and measurement of the bound amount of […] via the streptavidin-PE in the FACS. For the determination of 0% displacement of the compound 155, cells without inhibitor were measured. For the determination of 100% displacement, cells were measured without compound 155 and without inhibitor. For each assay, four substances and one reference were measured. The IC50 values determined in each assay were subsequently converted into values of rIP (relative Inhibitory Potency). […]

CC(=O)N[C@H]1[C@H]([C@H](O)[C@H](O)CNC(=O)c2ccc(-c3ccccc3)cc2)O[C@@](OCCCSCCNC(=O)CSSCC(=O)NCCSCCCO[C@]2(C(=O)[O-])C[C@H](O)[C@@H](NC(C)=O)[C@H]([C@H](O)[C@H](O)CNC(=O)c3ccc(-c4ccccc4)cc3)O2)(C(=O)[O-])C[C@@H]1O.[Na+].[Na+] [Compound 13]
rIP: 251

CC(=O)N[C@H]1[C@H]([C@H](O)[C@H](O)CNC(=O)c2ccc(-c3ccccc3)cc2)O[C@@](OCCCSCCNC(=O)c2ccc(-c3ccc(C(=O)NCCSCCCO[C@]4(C(=O)[O-])C[C@H](O)[C@@H](NC(C)=O)[C@H]([C@H](O)[C@H](O)CNC(=O)c5ccc(-c6ccccc6)cc5)O4)cc3)cc2)(C(=O)[O-])C[C@@H]1O.[Na+].[Na+] [Compound 24]
rIP: 75

CC(=O)N[C@H]1[C@H]([C@H](O)[C@H](O)CNC(=O)c2ccc(-c3ccccc3)cc2)O[C@@](OCCCSCCNC(=O)C#CC(=O)NCCSCCCO[C@]2(C(=O)[O-])C[C@H](O)[C@@H](NC(C)=O)[C@H]([C@H](O)[C@H](O)CNC(=O)c3ccc(-c4ccccc4)cc3)O2)(C(=O)[O-])C[C@@H]1O.[Na+].[Na+] [Compound 25]
rIP: 4944

CC(=O)N[C@H]1[C@H]([C@H](O)[C@H](O)CNC(=O)c2ccc(-c3ccccc3)cc2)O[C@@](OCCCSCCNC(=O)c2ccc(C(=O)NCCSCCCO[C@]3(C(=O)[O-])C[C@H](O)[C@@H](NC(C)=O)[C@H]([C@H](O)[C@H](O)CNC(=O)c4ccc(-c5ccccc5)cc4)O3)nc2)(C(=O)[O-])C[C@@H]1O.[Na+].[Na+] [Compound 27]
rIP: 2990

CC(=O)N[C@H]1[C@H]([C@H](O)[C@H](O)CNC(=O)c2ccc(-c3ccccc3)cc2)O[C@@](OCCCSCCNC(=O)Cc2ccc(CC(=O)NCCSCCCO[C@]3(C(=O)[O-])C[C@H](O)[C@@H](NC(C)=O)[C@H]([C@H](O)[C@H](O)CNC(=O)c4ccc(-c5ccccc5)cc4)O3)cc2)(C(=O)[O-])C[C@@H]1O.[Na+].[Na+] [Compound 28]
rIP: 129

CC(=O)N[C@H]1[C@H]([C@H](O)[C@H](O)CNC(=O)c2ccc(-c3ccccc3)cc2)O[C@@](OCCCSCCNC(=O)c2ccc(C(=O)NCCSCCCO[C@]3(C(=O)[O-])C[C@H](O)[C@@H](NC(C)=O)[C@H]([C@H](O)[C@H](O)CNC(=O)c4ccc(-c5ccccc5)cc4)O3)s2)(C(=O)[O-])C[C@@H]1O.[Na+].[Na+] [Compound 29]
rIP: 2061

CC(=O)N[C@H]1[C@H]([C@H](O)[C@H](O)CNC(=O)c2ccc(-c3ccccc3)cc2)O[C@@](OCCCSCCNC(=O)C2CCC(C(=O)NCCSCCCO[C@]3(C(=O)[O-])C[C@H](O)[C@@H](NC(C)=O)[C@H]([C@H](O)[C@H](O)CNC(=O)c4ccc(-c5ccccc5)cc4)O3)CC2)(C(=O)[O-])C[C@@H]1O.[Na+].[Na+] (stereo partly drawn) [Compound 31]
rIP: 643

CC(=O)N[C@H]1[C@H]([C@H](O)[C@H](O)CNC(=O)c2ccc(-c3ccccc3)cc2)O[C@@](OCCCSCCNC(=O)c2ccc(C(=O)NCCSCCCO[C@]3(C(=O)[O-])C[C@H](O)[C@@H](NC(C)=O)[C@H]([C@H](O)[C@H](O)CNC(=O)c4ccc(-c5ccccc5)cc4)O3)c3ccccc23)(C(=O)[O-])C[C@@H]1O.[Na+].[Na+] [Compound 34]
rIP: 899

CC(=O)N[C@H]1[C@H]([C@H](O)[C@H](O)CNC(=O)c2ccc(-c3ccccc3)cc2)O[C@@](OCCCSCCNC(=O)c2ccccc2-c2ccccc2C(=O)NCCSCCCO[C@]2(C(=O)[O-])C[C@H](O)[C@@H](NC(C)=O)[C@H]([C@H](O)[C@H](O)CNC(=O)c3ccc(-c4ccccc4)cc3)O2)(C(=O)[O-])C[C@@H]1O.[Na+].[Na+] [Compound 35]
rIP: 717

CC(=O)N[C@H]1[C@H]([C@H](O)[C@H](O)CNC(=O)c2ccc(-c3ccccc3)cc2)O[C@@](OCCCSCCNC(=O)CCC(=O)NCCSCCCO[C@]2(C(=O)[O-])C[C@H](O)[C@@H](NC(C)=O)[C@H]([C@H](O)[C@H](O)CNC(=O)c3ccc(-c4ccccc4)cc3)O2)(C(=O)[O-])C[C@@H]1O.[Na+].[Na+] [Compound 36]
rIP: 23

CC(=O)N[C@H]1[C@H]([C@H](O)[C@H](O)CNC(=O)c2ccc(-c3ccccc3)cc2)O[C@@](OCCCSCCNC(=O)CC(=O)NCCSCCCO[C@]2(C(=O)[O-])C[C@H](O)[C@@H](NC(C)=O)[C@H]([C@H](O)[C@H](O)CNC(=O)c3ccc(-c4ccccc4)cc3)O2)(C(=O)[O-])C[C@@H]1O.[Na+].[Na+] [Compound 37]
rIP: 177

CC(=O)N[C@H]1[C@H]([C@H](O)[C@H](O)CNC(=O)c2ccc(-c3ccccc3)cc2)O[C@@](OCCCSCCC(=O)Nc2ccc(NC(=O)CCSCCCO[C@]3(C(=O)[O-])C[C@H](O)[C@@H](NC(C)=O)[C@H]([C@H](O)[C@H](O)CNC(=O)c4ccc(-c5ccccc5)cc4)O3)cc2)(C(=O)[O-])C[C@@H]1O.[Na+].[Na+] [Compound 39]
rIP: 10760

CC(=O)N[C@H]1[C@H]([C@H](O)[C@H](O)CNC(=O)c2ccc(-c3ccccc3)cc2)O[C@@](OCCCSCCC(=O)Nc2cccc(NC(=O)CCSCCCO[C@]3(C(=O)[O-])C[C@H](O)[C@@H](NC(C)=O)[C@H]([C@H](O)[C@H](O)CNC(=O)c4ccc(-c5ccccc5)cc4)O3)c2)(C(=O)[O-])C[C@@H]1O.[Na+].[Na+] [Compound 41]
rIP: 423

CC(=O)N[C@H]1[C@H]([C@H](O)[C@H](O)CNC(=O)c2ccc(-c3ccccc3)cc2)O[C@@](OCCCSCCC(=O)Nc2ccccc2NC(=O)CCSCCCO[C@]2(C(=O)[O-])C[C@H](O)[C@@H](NC(C)=O)[C@H]([C@H](O)[C@H](O)CNC(=O)c3ccc(-c4ccccc4)cc3)O2)(C(=O)[O-])C[C@@H]1O.[Na+].[Na+] [Compound 42]
rIP: 359

CC(=O)N[C@H]1[C@H]([C@H](O)[C@H](O)CNC(=O)c2ccc(-c3ccccc3)cc2)O[C@@](OCCCSCCC(=O)NCCCCCCNC(=O)CCSCCCO[C@]2(C(=O)[O-])C[C@H](O)[C@@H](NC(C)=O)[C@H]([C@H](O)[C@H](O)CNC(=O)c3ccc(-c4ccccc4)cc3)O2)(C(=O)[O-])C[C@@H]1O.[Na+].[Na+] [Compound 43]
rIP: 15

CC(=O)N[C@H]1[C@H]([C@H](O)[C@H](O)CNC(=O)c2ccc(-c3ccccc3)cc2)O[C@@](OCCCSCCC(=O)NCc2ccc(CNC(=O)CCSCCCO[C@]3(C(=O)[O-])C[C@H](O)[C@@H](NC(C)=O)[C@H]([C@H](O)[C@H](O)CNC(=O)c4ccc(-c5ccccc5)cc4)O3)cc2)(C(=O)[O-])C[C@@H]1O.[Na+].[Na+] [Compound 44]
rIP: 177

CC(=O)N[C@H]1[C@H]([C@H](O)[C@H](O)CNC(=O)c2ccc(-c3ccccc3)cc2)O[C@@](OCCCSCCC(=O)Nc2c(C)c(C)c(NC(=O)CCSCCCO[C@]3(C(=O)[O-])C[C@H](O)[C@@H](NC(C)=O)[C@H]([C@H](O)[C@H](O)CNC(=O)c4ccc(-c5ccccc5)cc4)O3)c(C)c2C)(C(=O)[O-])C[C@@H]1O.[Na+].[Na+] [Compound 45]
rIP: 523

CC(=O)N[C@H]1[C@H]([C@H](O)[C@H](O)CNC(=O)c2ccc(-c3ccccc3)cc2)O[C@@](OCCCSCCC(=O)NCCNC(=O)CCSCCCO[C@]2(C(=O)[O-])C[C@H](O)[C@@H](NC(C)=O)[C@H]([C@H](O)[C@H](O)CNC(=O)c3ccc(-c4ccccc4)cc3)O2)(C(=O)[O-])C[C@@H]1O.[Na+].[Na+] [Compound 46]
rIP: 290
